Assay: Starch aging inhibiting effect, enzyme assay 1 and 2 (β-amylase degradation of corn starch gel)
Procedure: After the individual test samples were mixed into corn starch gel and left to stand at low temperature for 96 hours, the aging level was evaluated via a degradation experiment using β-amylase. The method described below is an evaluation scheme that is an improvement over the BAP method (K. Kainuma, et al, Journal of the Japanese Society of Starch Science 1981, 28, 235.) and only uses β-amylase.
The 4-trehalosamine (4TA) obtained in production example 10, and trehalose (TRH), sucrose (SCR), and glycerol (hereinafter, sometimes referred to as “GOL”) were each dissolved in water to a final concentration of 10% (w/w), thus preparing aqueous solutions. […]
Quantification (absorbance measurement) of enzyme reaction and sugar were performed for the 24-hour, the 48-hour, or the 96-hour sample in a similar manner to the quantification (absorbance measurement) of enzyme reaction and sugar for the 0-hour sample except that the measurement sample was changed to the 24-hour sample, the 48-hour sample, or the 96-hour sample in the quantification (absorbance measurement) of enzyme reaction and sugar for the 0-hour sample. […]

In the case of `N[C@H]1[C@H](O)[C@@H](O)[C@@H](O[C@H]2O[C@H](CO)[C@@H](O)[C@H](O)[C@H]2O)O[C@@H]1CO` [4-trehalosamine], the “β-amylase degradation rate (starch aging inhibiting effect)” value (final concentration 5% to 15%, 96 hours) is reported as “maintained β-amylase degradation rate at 96 hours significantly high compared to the other gels” and the “rate of degradation by β-amylase (starch aging inhibiting effect)” value (test sample final concentration 10% (w/w), 6° C., 24 to 96 hours) is reported as “significantly high rate of degradation by β-amylase at and after 24 hours compared to the other gels”.

From US20250002954A1, “Novel Compound, Use Thereof, and Method for Producing Same, and Compound-Containing Composition, Method for Producing 4-Trehalosamine, and Microorganism” (Microbial Chemistry Research Foundation, priority 2021, published 2025)
